According to US20240279205A1, “NOVEL BENZIMIDAZOLE DERIVATIVE” (Carna Biosciences, Inc., priority 2020, published 2024):

What was measured:
[1] = test system: STING activation (IFN-β production in THP-1 cells); assay: Human IFN-β production inhibition test by cGAMP stimulation in THP-1 cells; assay type: cell-based; set-up: IFN-β bioinhibitory activity: scale not given here; details: 2'3'-cGAMP transfection, 18 hours, IFN-β ELISA
Procedure, shortened: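 PMA-primed (100 nM, overnight) THP-1 cells pretreated 1 h with compound at 0.001 to 1 μM (0.1% DMSO), then transfected with 0.12 μg/well 2′3′-cGAMP and cultured 18 hours. Supernatant IFN-β measured by ELISA; IC50 by regression against log concentration, normalised to cGAMP-only (100%) and unstimulated (0%) controls.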

human STING (hSTING) = target: T1, human STING (hSTING) (Homo sapiens, UniProt Q86WV6); assay: Inhibition test of intracellular human STING (hSTING) pathway using SEAP reporter cells (HEK-Blue ISG), stimulation with Compound 3; assay type: cell-based; set-up: hSTING inhibitory activity: scale not given here; details: Compound 3 10 nM stimulation, 21 hours
T1 construct: host or cells: HEK-Blue ISG cells (HEK293-derived SEAP reporter line)
T1 sequence (Q86WV6 whole entry H232R): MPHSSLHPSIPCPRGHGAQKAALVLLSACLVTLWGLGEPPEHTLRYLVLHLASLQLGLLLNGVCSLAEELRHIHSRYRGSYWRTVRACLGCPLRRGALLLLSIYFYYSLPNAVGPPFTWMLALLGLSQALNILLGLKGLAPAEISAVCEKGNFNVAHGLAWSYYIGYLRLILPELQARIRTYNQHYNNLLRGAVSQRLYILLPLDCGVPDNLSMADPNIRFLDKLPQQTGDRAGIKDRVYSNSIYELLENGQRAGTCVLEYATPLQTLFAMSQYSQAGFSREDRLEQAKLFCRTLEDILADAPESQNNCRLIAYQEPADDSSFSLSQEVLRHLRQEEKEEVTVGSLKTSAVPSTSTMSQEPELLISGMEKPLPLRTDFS
Procedure, shortened: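 IC50 derived by regressing inhibition rate against log compound concentration (0.1 to 10 μM final, added 1 h before agonist), with 0% and 100% set by wells without and with 10 nM Compound 3. SEAP colour reaction read after 21 h stimulation of HEK-Blue ISG reporter cells.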

In the case of `Fc1ccc(Oc2ccc3nc(Nc4c[nH]c5ccc(Cl)cc45)n(C4CC4)c3c2)cc1` [Embodiment 196, N-(5-Chloro-1H-indol-3-yl)-1-cyclopropyl-6-(4-fluorophenoxy)-1H-benzo[d]imidazol-2-amine], the IFN-β bioinhibitory activity [1] was “* *” and the hSTING inhibitory activity (human STING (hSTING)) was “* * *”.
With `Cn1c(Nc2c[nH]c3ccc(Cl)nc23)nc2cc(OC(F)(F)F)ccc21` [Embodiment 210, N-(5-Chloro-1H-pyrrolo[3,2-b]pyridin-3-yl)-1-methyl-5-(trifluoromethoxy)-1H-benzo[d] imidazol-2-amine] the IFN-β bioinhibitory activity [1] was “* *” and the hSTING inhibitory activity (human STING (hSTING)) was “* *”.
`CCCn1c(Nc2c[nH]c3ccc(Cl)cc23)nc2cc(C(F)(F)F)ccc21` [Embodiment 212, N-(5-Chloro-1H-indol-3-yl)-1-propyl-5-(trifluoromethyl)-1H-benzo[d]imidazo-2-amine] was tested, and the IFN-β bioinhibitory activity [1] was “* * *” and the hSTING inhibitory activity (human STING (hSTING)) was “* * *”.
With `C=CCn1c(Nc2c[nH]c3ccc(Cl)cc23)nc2cc(C(F)(F)F)ccc21` [Embodiment 213, 1-allyl-N-(5-chloro-1H-indol-3-yl)-5-(trifluoromethyl)-1H-benzo[d]imidazol-2-amine] the IFN-β bioinhibitory activity [1] was “* *” and the hSTING inhibitory activity (human STING (hSTING)) was “* * *”.
With `C#CCn1c(Nc2c[nH]c3ccc(Cl)cc23)nc2cc(C(F)(F)F)ccc21` [Embodiment 214, N-(5-Chloro-1H-indol-3-yl)-1-(pro-2-yl)-5-(trifluoromethyl)-1H-benzo[d]imidazol-2-amine] the IFN-β bioinhibitory activity [1] was “* * *” and the hSTING inhibitory activity (human STING (hSTING)) was “* * *”.
For `FC(F)(F)c1ccc2c(c1)nc(Nc1c[nH]c3ccc(Cl)cc13)n2CC1CC1` [Embodiment 215, N-(5-Chloro-1H-indol-3-yl)-1-(cyclopropylmethyl)-5-(trifluoromethyl)-1H-benzo[d] imidazol-2-amine], the IFN-β bioinhibitory activity [1] was “* *” and the hSTING inhibitory activity (human STING (hSTING)) was “* * *”.
For `CN(C)n1c(Nc2c[nH]c3ccc(Cl)cc23)nc2cc(C(F)(F)F)ccc21` [Embodiment 216, N2-(5-Chloro-1H-indol-3-yl)-N1,N1-dimethyl-5-(trifluoromethyl)-1H-benzo[d]imidazole-1,2-diamine], the IFN-β bioinhibitory activity [1] was “* * *” and the hSTING inhibitory activity (human STING (hSTING)) was “* * *”.
With `CCn1c(Nc2c[nH]c3ccc(Cl)cc23)nc2cc(C(F)(F)F)ccc21` [Embodiment 217, N-(5-Chloro-1H-indol-3-yl)-1-ethyl-5-(trifluoromethyl)-1H-benzo[d]imidazol-2-amine] the IFN-β bioinhibitory activity [1] was “* *” and the hSTING inhibitory activity (human STING (hSTING)) was “* * *”.
`CC(C)n1c(Nc2c[nH]c3ccc(Cl)cc23)nc2cc(C(F)(F)F)ccc21` [Embodiment 218, N-(5-Chloro-1H-indol-3-yl)-1-isopropyl-5-(trifluoromethyl)-1H-benzo[d]imidazol-2-amine] was tested, and the IFN-β bioinhibitory activity [1] was “* *” and the hSTING inhibitory activity (human STING (hSTING)) was “* * *”.
`[2H]C([2H])([2H])n1c(Nc2c[nH]c3ccc(Cl)cc23)nc2cc(C(F)(F)F)ccc21` [Embodiment 221, N-(5-Chloro-1H-indol-3-yl)-1-(methyl-d3)-5-(trifluoromethyl)-1H-benzo[d]imidazol-2-mine] was tested, and the IFN-β bioinhibitory activity [1] was “* *” and the hSTING inhibitory activity (human STING (hSTING)) was “* * *”.
For `COCCn1c(Nc2c[nH]c3ccc(Cl)cc23)nc2cc(C(F)(F)F)ccc21` [Embodiment 222, N-(5-Chloro-1H-indol-3-yl)-1-(2-methoxyethyl)-5-(trifluoromethyl)-1H-benzo[d]imidazol-2-amine], the IFN-β bioinhibitory activity [1] was “* *” and the hSTING inhibitory activity (human STING (hSTING)) was “* * *”.
`OCCn1c(Nc2c[nH]c3ccc(Cl)cc23)nc2cc(C(F)(F)F)ccc21` [Embodiment 223, 2-{2-[(5-chloro-1H-indol-3-yl)amino]-5-(trifluoromethyl)-1H-benzo[d]imidazol-1-yl}ethanol] was tested, and the IFN-β bioinhibitory activity [1] was “* *” and the hSTING inhibitory activity (human STING (hSTING)) was “* * *”.
With `FC(F)(F)c1ccc2c(c1)nc(Nc1c[nH]c3ccc(Br)cc13)n2C1CC1` [Embodiment 224, N-(5-bromo-1H-indol-3-yl)-1-cyclopropyl-5-(trifluoromethyl)-1H-benzo[d]imidazol-2-amine] the IFN-β bioinhibitory activity [1] was “* *” and the hSTING inhibitory activity (human STING (hSTING)) was “* * *”.
